EC50 data for 7 compounds are collected here from ChEMBL document CHEMBL1154893, “Altaicalarins A-D, cytotoxic bisabolane sesquiterpenes from Ligularia altaica” (J Nat Prod, 2010).

≈ marks a conversion by molar mass, not a printed value.

Assay [1] relates to KB. Kind of assay: Cytotoxicity against human KB cells after 48 hrs by SRB assay. For orientation: Sulforhodamine B stains cellular protein and so reports cell mass.
For assay [2], the system named is A549. Kind of assay: Cytotoxicity against human A549 cells after 48 hrs by SRB assay. The note with it: A549, 48 h.
In assay [3] the test system is MCF7. Kind of assay: Cytotoxicity against human MCF7 cells after 48 hrs by SRB assay. The note with it: MCF7, 48 h.
The nature of assay [4]: Cytotoxicity against human vincristine resistant KBVIN cells after 48 hrs by SRB assay.

Broadly, the EC50 is the midpoint of the concentration-response curve. A high value points to weaker potency. As to `C=C(C(CC(O)C(C)(C)O)OC(=O)/C(C)=C\C)[C@H]1C[C@H]2O[C@@]2(C)C(OC(=O)/C(C)=C\C)[C@H]1OC(C)=O` (stereo partly drawn), the EC50 in assay [1], in assay [2], in assay [3] and in assay [4] was greater than 20 µg/mL in each case.

`C=C(C(CC1OC1(C)C)OC(=O)/C(C)=C\C)[C@H]1C[C@H]2O[C@@]2(C)C[C@H]1OC(=O)/C(C)=C\C` (stereo partly drawn): the half-maximal effective concentration (EC50) is greater than 20 µg/mL in assay [1], greater than 20 µg/mL in assay [2], greater than 20 µg/mL in assay [3] and 11.4 µg/mL (≈ 26.4 µM) in assay [4].

With `C=C(c1cc(O)c(C)c(O)c1OC(C)=O)C(CC=C(C)C)OC(=O)/C(C)=C\C` (stereo not drawn) [ALTAICALARIN A], the EC50 in assay [1] was 1 µg/mL (≈ 2.57 µM); in assay [2], 3.4 µg/mL (≈ 8.75 µM); in assay [3], 0.8 µg/mL (≈ 2.06 µM); in assay [4], 0.9 µg/mL (≈ 2.32 µM).

As to `C=C(c1ccc(C)c(O)c1O)C(CC=C(C)C)OC(=O)/C(C)=C\C` (stereo not drawn) [ALTAICALARIN B], the EC50 is 11.8 µg/mL (≈ 35.7 µM) in assay [1], greater than 20 µg/mL in assay [2], 10.8 µg/mL (≈ 32.7 µM) in assay [3] and 15.9 µg/mL (≈ 48.1 µM) in assay [4].

In the case of `C=C(C(CC=C(C)C)OC(=O)/C(C)=C\C)[C@@H]1C[C@@H]2O[C@]2(C)C(=O)[C@H]1OC(C)=O` (stereo partly drawn) [ALTAICALARIN C], the EC50 was 10.4 µg/mL (≈ 26.6 µM) in assay [1], 11.4 µg/mL (≈ 29.2 µM) in assay [2], 7.7 µg/mL (≈ 19.7 µM) in assay [3] and 7.6 µg/mL (≈ 19.5 µM) in assay [4].

Turning to `C=C(C(CC1OC1(C)C)OC(=O)/C(C)=C\C)[C@@H]1[C@H](OC(=O)/C(C)=C\C)[C@@H]2O[C@]2(C)C(=O)[C@H]1OC(C)=O` (stereo partly drawn) [ALTAICALARIN D], the EC50 in assay [1] was greater than 20 µg/mL; in assay [2] it was greater than 20 µg/mL; in assay [3], greater than 20 µg/mL; in assay [4] it was 18.9 µg/mL (≈ 37.5 µM).

In the case of `COc1cc([C@@H]2c3cc4c(cc3[C@@H](O[C@@H]3O[C@@H]5CO[C@@H](C)O[C@H]5[C@H](O)[C@H]3O)[C@H]3COC(=O)[C@H]23)OCO4)cc(OC)c1O` [ETOPOSIDE], the EC50 in assay [1] turned out to be 3.9 µg/mL (≈ 6.63 µM); in assay [2], 0.4 µg/mL (≈ 0.68 µM); in assay [3], 16.4 µg/mL (≈ 27.9 µM); in assay [4], 8.8 µg/mL (≈ 15 µM).
